Key:
[1] = target: T1, CnHsp90 (heat shock protein 90) (Cryptococcus neoformans, UniProt J9VVA4); test: intrinsic tryptophan fluorescence quenching; also inhibits ATPase activity of the purified protein (IC50 […] at […]°C, […] at […]°C); type: binding
T1 construct: gene CNAG_06150; recombinant CnHsp90 6x-His tag fusion protein (2157 bp amplified product in pRSET-A)

[2] = target: T1, CnHsp90 (heat shock protein 90); test: intrinsic tryptophan fluorescence quenching; also hydrolysis of γ-32P-ATP (Km […] at […]°C, […] at […]°C); type: binding

T1 sequence (J9VVA4 entry or part of it): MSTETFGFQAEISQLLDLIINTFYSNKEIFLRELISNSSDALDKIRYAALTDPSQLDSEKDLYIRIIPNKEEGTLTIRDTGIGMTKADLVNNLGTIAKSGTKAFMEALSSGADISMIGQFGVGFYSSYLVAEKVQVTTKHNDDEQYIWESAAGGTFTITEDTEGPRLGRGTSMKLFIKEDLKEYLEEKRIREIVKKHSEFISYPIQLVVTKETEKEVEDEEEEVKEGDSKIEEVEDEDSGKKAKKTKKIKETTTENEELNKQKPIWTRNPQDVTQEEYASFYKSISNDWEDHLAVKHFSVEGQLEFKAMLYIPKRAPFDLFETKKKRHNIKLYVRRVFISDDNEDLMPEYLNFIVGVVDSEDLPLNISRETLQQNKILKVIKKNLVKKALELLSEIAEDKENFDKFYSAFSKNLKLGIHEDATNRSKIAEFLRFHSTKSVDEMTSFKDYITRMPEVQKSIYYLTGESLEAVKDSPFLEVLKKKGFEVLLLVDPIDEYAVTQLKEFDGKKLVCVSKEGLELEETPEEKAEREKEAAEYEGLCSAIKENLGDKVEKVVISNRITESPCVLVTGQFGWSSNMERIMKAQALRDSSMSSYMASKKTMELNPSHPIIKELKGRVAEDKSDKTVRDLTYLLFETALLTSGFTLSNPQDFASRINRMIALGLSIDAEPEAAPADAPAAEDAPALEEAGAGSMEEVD

C=CCNC1=C2C[C@@H](C)C[C@H](OC)[C@H](O)[C@@H](C)/C=C(\C)[C@H](OC(N)=O)[C@@H](OC)/C=C\C=C(/C)C(=O)NC(=CC1=O)C2=O [17-AAG]
Kd [1]: 12.9 µM

Nc1ncnc2c1ncn2[C@@H]1O[C@H](COP(=O)(O)OP(=O)(O)OP(=O)(O)O)[C@@H](O)[C@H]1O [ATP]
Kd [2]: 497 µM
